Measured values published in ChEMBL document CHEMBL4507263, “Data for DCP probe BAY-474” (2021).
Calls of active or inactive are those of the source. The rule behind the calls is not given here.

Columns and labels:
[1] = target: Proto-oncogene tyrosine-protein kinase Src (Homo sapiens) (UniProt P12931); conditions: Compound concentration 1000.0 nM
[2] = target: Serine/threonine-protein kinase SIK2 (Homo sapiens) (UniProt Q9H0K1); conditions: Compound concentration 1000.0 nM
[3] = target: Cyclin-dependent kinase 2 (Homo sapiens) (UniProt P24941); conditions: Compound concentration 1000.0 nM
[4] = tested on: Mast/stem cell growth factor receptor Kit (Homo sapiens), P10721 [V559D,T670I]; conditions: Compound concentration 1000.0 nM
[5] = target: Tyrosine-protein kinase Fes/Fps (Homo sapiens) (UniProt P07332); conditions: Compound concentration 1000.0 nM
[6] = target: Calcium/calmodulin-dependent protein kinase type II subunit beta (Homo sapiens) (UniProt Q13554); conditions: Compound concentration 1000.0 nM
[7] = target: cAMP-dependent protein kinase catalytic subunit alpha (Homo sapiens) (UniProt P17612); conditions: Compound concentration 1000.0 nM
[8] = target: Tyrosine-protein kinase ABL1 (Homo sapiens) (UniProt P00519); conditions: Compound concentration 1000.0 nM
[9] = target: Macrophage colony-stimulating factor 1 receptor (Homo sapiens) (UniProt P07333); conditions: Compound concentration 1000.0 nM
[10] = target: Phosphatidylinositol 5-phosphate 4-kinase type-2 gamma (Homo sapiens) (UniProt Q8TBX8); conditions: Compound concentration 1000.0 nM
Chain of Phosphatidylinositol 5-phosphate 4-kinase type-2 gamma (Homo sapiens) (Q8TBX8 whole entry): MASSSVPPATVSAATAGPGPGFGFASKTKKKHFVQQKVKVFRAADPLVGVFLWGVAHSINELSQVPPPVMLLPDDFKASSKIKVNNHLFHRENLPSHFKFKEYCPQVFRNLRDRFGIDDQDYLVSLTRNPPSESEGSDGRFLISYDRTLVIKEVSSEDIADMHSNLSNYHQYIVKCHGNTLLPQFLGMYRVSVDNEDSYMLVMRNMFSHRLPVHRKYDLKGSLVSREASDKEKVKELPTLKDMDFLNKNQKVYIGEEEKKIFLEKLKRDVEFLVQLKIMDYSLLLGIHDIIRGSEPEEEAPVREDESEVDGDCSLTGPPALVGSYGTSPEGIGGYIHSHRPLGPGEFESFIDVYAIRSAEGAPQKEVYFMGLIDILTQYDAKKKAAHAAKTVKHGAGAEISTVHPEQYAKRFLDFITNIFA

[11] = target: Serine/threonine-protein kinase tousled-like 2 (Homo sapiens) (UniProt Q86UE8); conditions: Compound concentration 1000.0 nM
[12] = target: Homeodomain-interacting protein kinase 3 (Homo sapiens) (UniProt Q9H422); conditions: Compound concentration 1000.0 nM
[13] = target: MAP/microtubule affinity-regulating kinase 4 (Homo sapiens) (UniProt Q96L34); conditions: Compound concentration 1000.0 nM
[14] = target: G protein-coupled receptor kinase 3 (Homo sapiens) (UniProt P35626); conditions: Compound concentration 1000.0 nM
[15] = target: Cyclin-dependent kinase 2 homolog (Plasmodium falciparum (isolate 3D7)) (UniProt P61075); conditions: Compound concentration 1000.0 nM
Chain of Cyclin-dependent kinase 2 homolog (Plasmodium falciparum (isolate 3D7)) (P61075 whole entry): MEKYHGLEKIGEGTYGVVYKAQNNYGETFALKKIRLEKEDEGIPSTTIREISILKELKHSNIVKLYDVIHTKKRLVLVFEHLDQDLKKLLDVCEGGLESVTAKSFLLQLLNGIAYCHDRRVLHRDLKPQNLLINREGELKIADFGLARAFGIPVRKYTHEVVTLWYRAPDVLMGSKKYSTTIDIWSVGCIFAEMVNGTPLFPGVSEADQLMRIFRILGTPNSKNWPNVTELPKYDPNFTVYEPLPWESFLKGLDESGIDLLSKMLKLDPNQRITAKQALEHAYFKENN

[16] = target: Serine/threonine-protein kinase 10 (Homo sapiens) (UniProt O94804); conditions: Compound concentration 1000.0 nM
[17] = target: Non-receptor tyrosine-protein kinase TNK1 (Homo sapiens) (UniProt Q13470); conditions: Compound concentration 1000.0 nM
Chain of Non-receptor tyrosine-protein kinase TNK1 (Homo sapiens) (Q13470 whole entry): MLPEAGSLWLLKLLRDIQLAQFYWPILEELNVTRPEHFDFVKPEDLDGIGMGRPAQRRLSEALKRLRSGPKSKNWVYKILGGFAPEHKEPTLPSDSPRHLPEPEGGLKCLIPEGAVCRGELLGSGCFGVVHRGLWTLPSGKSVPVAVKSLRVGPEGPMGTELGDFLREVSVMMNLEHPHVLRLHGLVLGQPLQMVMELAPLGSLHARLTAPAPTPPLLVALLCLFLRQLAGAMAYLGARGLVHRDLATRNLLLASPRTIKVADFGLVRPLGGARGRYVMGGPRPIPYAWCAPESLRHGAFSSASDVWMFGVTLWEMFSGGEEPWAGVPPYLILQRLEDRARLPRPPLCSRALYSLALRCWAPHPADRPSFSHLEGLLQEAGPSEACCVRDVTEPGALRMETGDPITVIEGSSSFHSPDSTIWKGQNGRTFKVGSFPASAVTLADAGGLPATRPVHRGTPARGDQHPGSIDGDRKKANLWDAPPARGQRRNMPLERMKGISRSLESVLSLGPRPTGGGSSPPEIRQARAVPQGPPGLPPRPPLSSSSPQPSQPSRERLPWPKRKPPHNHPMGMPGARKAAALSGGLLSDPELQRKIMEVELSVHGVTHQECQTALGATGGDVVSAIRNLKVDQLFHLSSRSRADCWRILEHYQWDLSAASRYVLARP

[18] = target: Calcium/calmodulin-dependent protein kinase kinase 2 (Homo sapiens) (UniProt Q96RR4); conditions: Compound concentration 1000.0 nM
[19] = target: Inhibitor of nuclear factor kappa-B kinase subunit beta (Homo sapiens) (UniProt O14920); conditions: Compound concentration 1000.0 nM
Chain of Inhibitor of nuclear factor kappa-B kinase subunit beta (Homo sapiens) (O14920 whole entry): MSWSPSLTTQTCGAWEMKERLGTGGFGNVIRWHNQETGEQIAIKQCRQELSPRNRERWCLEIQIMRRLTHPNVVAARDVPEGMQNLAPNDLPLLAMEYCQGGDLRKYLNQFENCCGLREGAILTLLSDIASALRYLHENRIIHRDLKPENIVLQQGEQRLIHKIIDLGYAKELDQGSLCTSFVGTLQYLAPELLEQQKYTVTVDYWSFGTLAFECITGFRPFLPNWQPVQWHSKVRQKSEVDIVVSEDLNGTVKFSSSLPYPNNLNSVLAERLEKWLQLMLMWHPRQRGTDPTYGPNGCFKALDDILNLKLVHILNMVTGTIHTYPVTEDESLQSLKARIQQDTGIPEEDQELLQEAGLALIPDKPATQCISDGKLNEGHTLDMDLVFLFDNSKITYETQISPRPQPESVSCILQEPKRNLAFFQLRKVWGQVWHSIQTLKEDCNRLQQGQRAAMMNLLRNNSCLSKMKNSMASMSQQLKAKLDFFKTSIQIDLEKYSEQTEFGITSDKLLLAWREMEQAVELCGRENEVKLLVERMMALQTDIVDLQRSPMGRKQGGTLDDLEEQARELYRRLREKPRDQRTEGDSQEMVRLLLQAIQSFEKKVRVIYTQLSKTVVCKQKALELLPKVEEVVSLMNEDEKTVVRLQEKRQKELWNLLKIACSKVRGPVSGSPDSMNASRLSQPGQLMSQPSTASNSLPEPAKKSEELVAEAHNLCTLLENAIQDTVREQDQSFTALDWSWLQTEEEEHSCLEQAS

[20] = target: Serine/threonine-protein kinase PAK 5 (Homo sapiens) (UniProt Q9P286); conditions: Compound concentration 1000.0 nM
Chain of Serine/threonine-protein kinase PAK 5 (Homo sapiens) (Q9P286 whole entry, looked up): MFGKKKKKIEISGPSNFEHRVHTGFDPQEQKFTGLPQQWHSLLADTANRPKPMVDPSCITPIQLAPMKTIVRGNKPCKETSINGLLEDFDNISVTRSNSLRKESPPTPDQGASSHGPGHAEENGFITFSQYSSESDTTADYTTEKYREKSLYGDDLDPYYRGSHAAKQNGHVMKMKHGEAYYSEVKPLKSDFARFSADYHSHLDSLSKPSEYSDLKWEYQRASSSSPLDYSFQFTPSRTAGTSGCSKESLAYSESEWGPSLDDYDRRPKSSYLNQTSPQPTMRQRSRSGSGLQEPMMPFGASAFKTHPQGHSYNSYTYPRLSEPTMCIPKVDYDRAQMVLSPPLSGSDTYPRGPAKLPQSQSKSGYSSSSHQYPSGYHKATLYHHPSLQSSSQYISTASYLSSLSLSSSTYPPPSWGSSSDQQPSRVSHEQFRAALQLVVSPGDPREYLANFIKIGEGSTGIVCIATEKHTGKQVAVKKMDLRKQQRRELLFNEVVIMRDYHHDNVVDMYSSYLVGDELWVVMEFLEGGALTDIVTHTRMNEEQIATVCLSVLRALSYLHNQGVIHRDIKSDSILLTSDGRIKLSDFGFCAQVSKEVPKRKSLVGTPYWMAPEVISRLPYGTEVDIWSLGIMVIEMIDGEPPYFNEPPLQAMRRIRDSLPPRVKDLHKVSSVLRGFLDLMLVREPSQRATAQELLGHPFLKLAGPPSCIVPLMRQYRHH

[21] = target: Serine/threonine-protein kinase 3 (Homo sapiens) (UniProt Q13188); conditions: Compound concentration 1000.0 nM
[22] = target: Serine/threonine-protein kinase 36 (Homo sapiens) (UniProt Q9NRP7); conditions: Compound concentration 1000.0 nM
[23] = target: Cyclin-dependent kinase-like 1 (Homo sapiens) (UniProt Q00532); conditions: Compound concentration 1000.0 nM
[24] = target: MAP kinase-activated protein kinase 2 (Homo sapiens) (UniProt P49137); experiment: MAPKAP-K2 (h) Millipore kinase activity assay; conditions: Compound concentration 1.0 uM
[25] = target: Fibroblast growth factor receptor 1 (Homo sapiens) (UniProt P11362); experiment: FGFR1 (h) Millipore kinase activity assay; conditions: Compound concentration 1.0 uM
Chain of Fibroblast growth factor receptor 1 (Homo sapiens) (P11362 22-822 limits assumed): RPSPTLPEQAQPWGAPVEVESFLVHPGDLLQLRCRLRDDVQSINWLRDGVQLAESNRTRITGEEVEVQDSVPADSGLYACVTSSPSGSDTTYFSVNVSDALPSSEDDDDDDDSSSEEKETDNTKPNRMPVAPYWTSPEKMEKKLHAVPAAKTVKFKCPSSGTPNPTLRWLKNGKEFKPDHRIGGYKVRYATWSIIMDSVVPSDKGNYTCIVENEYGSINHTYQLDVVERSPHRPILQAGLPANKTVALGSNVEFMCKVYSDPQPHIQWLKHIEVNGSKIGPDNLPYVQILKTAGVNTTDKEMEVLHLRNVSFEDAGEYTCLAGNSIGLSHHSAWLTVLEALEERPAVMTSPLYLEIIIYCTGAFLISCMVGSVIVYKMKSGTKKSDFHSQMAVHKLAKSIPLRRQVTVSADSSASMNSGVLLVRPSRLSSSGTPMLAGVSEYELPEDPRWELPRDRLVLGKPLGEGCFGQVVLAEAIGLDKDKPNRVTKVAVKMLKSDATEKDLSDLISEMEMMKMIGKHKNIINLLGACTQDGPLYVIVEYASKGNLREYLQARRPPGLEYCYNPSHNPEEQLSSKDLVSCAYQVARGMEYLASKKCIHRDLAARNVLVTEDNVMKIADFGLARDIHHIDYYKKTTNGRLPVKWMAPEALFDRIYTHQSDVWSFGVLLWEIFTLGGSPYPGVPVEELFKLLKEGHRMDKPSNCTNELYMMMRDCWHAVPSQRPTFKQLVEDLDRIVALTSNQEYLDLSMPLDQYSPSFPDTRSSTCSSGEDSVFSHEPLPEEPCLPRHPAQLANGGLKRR

[26] = target: T1, D(4) dopamine receptor (Homo sapiens) (UniProt P21917); experiment: Inhibition of Dopamine D4.2 at 10 µM in the Eurofins-Panlabs radioligand binding assay (Eurofins_assay_219900); set-up: ligand concentration 0.5 nM; conditions: Compound concentration 10.0 uM
T1 sequence (whole entry): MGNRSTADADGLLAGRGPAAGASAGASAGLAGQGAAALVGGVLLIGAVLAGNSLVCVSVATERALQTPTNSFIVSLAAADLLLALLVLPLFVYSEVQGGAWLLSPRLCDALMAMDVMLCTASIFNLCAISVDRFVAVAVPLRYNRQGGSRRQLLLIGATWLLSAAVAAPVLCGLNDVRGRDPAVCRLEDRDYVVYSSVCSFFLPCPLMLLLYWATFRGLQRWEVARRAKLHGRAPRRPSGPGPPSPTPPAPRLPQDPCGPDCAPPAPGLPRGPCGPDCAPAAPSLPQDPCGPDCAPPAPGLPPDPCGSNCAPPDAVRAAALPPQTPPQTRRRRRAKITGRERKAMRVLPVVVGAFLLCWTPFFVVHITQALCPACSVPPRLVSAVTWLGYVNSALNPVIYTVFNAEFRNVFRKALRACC

[27] = target: Cyclin-dependent kinase 3 (Homo sapiens) (UniProt Q00526); experiment: CDK3/cyclinE (h) Millipore kinase activity assay; conditions: Compound concentration 1.0 uM
[28] = target: Casein kinase I isoform gamma-2 (Homo sapiens) (UniProt P78368); experiment: CK1gamma2 (h) Millipore kinase activity assay; conditions: Compound concentration 1.0 uM
[29] = target: Cyclin-dependent kinase 1/cyclin B (Homo sapiens) (UniProt P06493+P14635+Q8WWL7+O95067); experiment: CDK1/cyclinB( h) Millipore kinase activity assay; assay type: protein-complex assay; conditions: Compound concentration 1.0 uM
[30] = target: Serine/threonine-protein kinase WNK3 (Homo sapiens) (UniProt Q9BYP7); experiment: WNK3 (h) Millipore kinase activity assay; conditions: Compound concentration 1.0 uM
[31] = target: Endothelin-1 receptor (Homo sapiens) (UniProt P25101); conditions: Compound concentration 10.0 uM
[32] = target: Serine/threonine-protein kinase MRCK beta (Homo sapiens) (UniProt Q9Y5S2); experiment: MRCKbeta (h) Millipore kinase activity assay; conditions: Compound concentration 1.0 uM
[33] = target: Ribosomal protein S6 kinase alpha-5 (Homo sapiens) (UniProt O75582); experiment: MSK1 (h) Millipore kinase activity assay; conditions: Compound concentration 1.0 uM
[34] = target: Hepatocyte growth factor receptor (Homo sapiens, UniProt P08581); experiment: Cellular mechanistic assay using […] cells and p-MET; assay type: cell-based, MKN-45
[35] = target: Calcium/calmodulin-dependent protein kinase type II subunit gamma (Homo sapiens) (UniProt Q13555); experiment: CaMKIIgamma (h) Millipore kinase activity assay; conditions: Compound concentration 1.0 uM
Chain of Calcium/calmodulin-dependent protein kinase type II subunit gamma (Homo sapiens) (Q13555 whole entry): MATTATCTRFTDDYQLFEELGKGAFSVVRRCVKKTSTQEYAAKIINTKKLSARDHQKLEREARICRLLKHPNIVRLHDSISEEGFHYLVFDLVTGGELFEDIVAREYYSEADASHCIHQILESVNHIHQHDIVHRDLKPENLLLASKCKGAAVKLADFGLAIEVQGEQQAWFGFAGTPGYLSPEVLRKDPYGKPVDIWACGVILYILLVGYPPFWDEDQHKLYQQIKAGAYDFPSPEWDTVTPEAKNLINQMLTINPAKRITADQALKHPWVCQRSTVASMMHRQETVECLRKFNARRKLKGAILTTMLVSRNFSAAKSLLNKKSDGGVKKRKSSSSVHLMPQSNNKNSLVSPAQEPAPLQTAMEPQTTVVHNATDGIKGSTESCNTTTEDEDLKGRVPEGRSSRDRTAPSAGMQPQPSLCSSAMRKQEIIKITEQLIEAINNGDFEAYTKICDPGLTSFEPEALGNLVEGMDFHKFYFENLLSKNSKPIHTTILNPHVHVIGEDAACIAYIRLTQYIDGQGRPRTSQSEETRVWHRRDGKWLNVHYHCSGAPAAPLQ

[36] = target: Serine/threonine-protein kinase TAO1 (Homo sapiens) (UniProt Q7L7X3); experiment: TAO1 (h) Millipore kinase activity assay; conditions: Compound concentration 1.0 uM
[37] = target: Insulin receptor (Homo sapiens) (UniProt P06213); experiment: IR (h) Millipore kinase activity assay; conditions: Compound concentration 1.0 uM
[38] = target: G protein-coupled receptor kinase 5 (Homo sapiens) (UniProt P34947); experiment: GRK5 (h) Millipore kinase activity assay; conditions: Compound concentration 1.0 uM
Chain of G protein-coupled receptor kinase 5 (Homo sapiens) (P34947 whole entry, looked up): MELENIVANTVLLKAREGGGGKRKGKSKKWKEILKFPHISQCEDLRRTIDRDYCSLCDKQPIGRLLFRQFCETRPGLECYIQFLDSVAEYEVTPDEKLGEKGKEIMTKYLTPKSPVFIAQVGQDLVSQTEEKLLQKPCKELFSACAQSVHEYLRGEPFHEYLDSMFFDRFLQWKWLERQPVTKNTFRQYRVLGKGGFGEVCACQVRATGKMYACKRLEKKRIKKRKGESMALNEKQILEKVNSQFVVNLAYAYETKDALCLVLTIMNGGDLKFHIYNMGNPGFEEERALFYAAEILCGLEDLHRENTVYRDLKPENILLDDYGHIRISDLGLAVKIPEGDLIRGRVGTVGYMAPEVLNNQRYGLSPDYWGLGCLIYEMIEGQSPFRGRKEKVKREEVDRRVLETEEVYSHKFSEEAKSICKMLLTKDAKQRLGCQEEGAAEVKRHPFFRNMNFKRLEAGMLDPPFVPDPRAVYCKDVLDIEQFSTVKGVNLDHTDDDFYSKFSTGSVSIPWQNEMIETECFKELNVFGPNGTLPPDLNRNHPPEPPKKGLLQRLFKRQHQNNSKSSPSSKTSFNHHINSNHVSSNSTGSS

[39] = target: Melatonin receptor type 1A (Homo sapiens) (UniProt P48039); experiment: Inhibition of Melatonin MT1 at 10 µM in the Eurofins-Panlabs radioligand binding assay (Eurofins_assay_251600); set-up: ligand concentration 0.05 nM; conditions: Compound concentration 10.0 uM

SMILES: CC1=C(C#N)[C@@H](c2ccc3[nH]nc(C)c3c2)C(C#N)=C(c2ccc(Cl)cc2)N1 [BAY-827]
- residual activity [1]: 100%
- residual activity [2]: 100%
- residual activity [3]: 100%
- residual activity [4]: 84.4%
- residual activity [5]: 100%
- residual activity [6]: 100%
- residual activity [7]: 96.7%
- residual activity [8]: 82.9%
- residual activity [9]: 100%
- residual activity [10]: 100%
- residual activity [11]: 100%
- residual activity [12]: 89.5%
- residual activity [13]: 100%
- residual activity [14]: 85.3%
- residual activity [15]: 92.5%
- residual activity [16]: 100%
- residual activity [17]: 65%
- residual activity [18]: 86.5%
- residual activity [19]: 100%
- residual activity [20]: 100%
- residual activity [21]: 100%
- residual activity [22]: 95.9%
- residual activity [23]: 77.1%

SMILES: CC1=C(C#N)C(c2ccc3[nH]nc(C)c3c2)C(C#N)=C(C)N1 [BAY-474]
- inhibition [24]: -2%
- inhibition [25]: 23%
- inhibition [26]: -2%
- inhibition [27]: -4%
- inhibition [28]: 19%
- inhibition [29]: 16%
- inhibition [30]: -5%
- inhibition [31]: 7%
- inhibition [32]: -7%
- inhibition [33]: -1%
- IC50 [34]: 2.9 nM (active)
- inhibition [35]: 2%
- inhibition [36]: -6%
- inhibition [37]: -9%
- inhibition [38]: 0%
- inhibition [39]: 2%
